# Experimental data reported in patent US10233186B2, “Inhibitors of activin receptor-like kinase” (BLUEPRINT MEDICINES CORPORATION, priority 2016, dated 2019).
# Legend:
# human ALK2 R206H = target: T1, human ALK2 R206H (Homo sapiens, UniProt Q04771, R206H); assay: Cell-based ALK2-R206H cell activity assay (Smad1-Ser463/Ser465 phosphorylation by AlphaLISA in HEK293-ALK2-R206H cells); conditions: read-out: Cell Line (Cell Assay IC50)
# T1 construct: expressed in transfected cells; host or cells: HEK293 (ATCC CRL1573), lentivirus transduction, blasticidin selection
# T1 sequence (Q04771 21-509 R206H): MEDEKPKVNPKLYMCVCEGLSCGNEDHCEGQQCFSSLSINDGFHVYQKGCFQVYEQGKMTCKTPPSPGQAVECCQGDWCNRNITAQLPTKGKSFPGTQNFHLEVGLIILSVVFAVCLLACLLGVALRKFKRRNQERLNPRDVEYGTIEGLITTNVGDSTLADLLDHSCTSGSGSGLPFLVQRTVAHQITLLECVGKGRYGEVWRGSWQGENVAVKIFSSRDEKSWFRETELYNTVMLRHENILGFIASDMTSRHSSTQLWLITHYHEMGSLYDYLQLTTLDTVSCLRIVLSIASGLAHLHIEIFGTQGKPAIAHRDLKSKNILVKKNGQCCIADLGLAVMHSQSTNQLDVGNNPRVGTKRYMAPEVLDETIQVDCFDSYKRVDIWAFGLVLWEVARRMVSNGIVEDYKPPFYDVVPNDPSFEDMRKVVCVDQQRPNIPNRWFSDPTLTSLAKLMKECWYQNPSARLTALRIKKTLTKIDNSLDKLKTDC
# Description: A HEK293 (ATCC, Cat^# CRL1573) based stable cell line expressing human ALK2 R206H cDNA (synthesized by GeneScript, Piscataway, N.J.) and a FLAG tag at the C-terminus was generated by lentivirus transduction and subsequent blasticidin (Life Technologies, Cat^#-A1113902) selection at 10 μg/ml for >2 wks. This cell line was named HEK293-ALK2-R206H.
# Test compounds were first diluted to 4 mM or 0.4 mM and then serially diluted 3-fold into 10 different concentrations using DMSO. […] Two μl of the diluted compounds were then dispensed into the HEK293-ALK2-R206H cell-containing wells of the microplates in duplicates. In this way, each compound was tested in 10 doses (3-fold serial dilution with the top concentration being 10 μM or 1 μM). Liquid handling was achieved using a Bravo Automated Liquid Handling Platform (Agilent Technologies). DMSO without compound was used as a negative control. The positive control was 1 μM LDN193189, a known bone morphogenetic protein (BMP inhibitor).
# The 10-point dose response curve was used to calculate the IC50 values.
# Blank values in the table indicate that the particular compound was not tested in this assay.
# [1] = target: T2, ALK2 R206H (GST-tagged mutant ALK2) (Homo sapiens, UniProt Q04771, R206H); assay: ALK binding assay (LANTHASCREEN TR-FRET competitive binding, displacement of Kinase Tracer 178); conditions: ALK2 R206H, LANTHASCREEN TR-FRET competitive binding; read-out: Binding Assay (IC50)
# T2 construct: purchased Carna Bioscience or ThermoFisher 09-148 or PV6232
# T2 sequence (Q04771 21-509 R206H): T1 sequence (Q04771 21-509 R206H)
Compound,IC50 (human ALK2 R206H),IC50 [1]
CC(C)N1CCC(c2ccc(-c3cc4c(N5CCN(C(=O)OC(C)(C)C)CC5)ccnn4c3)cc2)CC1 [Compound 632],100 to 500 nM,< 10 nM
CCNC(=O)N1CCN(c2ccnn3cc(-c4ccc(N5CCN(C(C)C)CC5)cn4)cc23)CC1 [Compound 546],< 100 nM,< 10 nM
O=C(C1CC1)N1CCN(c2ccnn3cc(-c4ccc(C5CCCN5)cn4)cc23)CC1 (centres unmarked) [Compound 452],< 100 nM,< 10 nM
CN1CCN(c2ccc(-c3cc4c(N5CCN(C(=O)C6CCC6)CC5)ccnn4c3)cc2)CC1 [Compound 212],100 to 500 nM,< 10 nM
CCN1CCC(c2ccc(-c3cc4c(N5CCN(C(=O)C6CC(O)(C(F)(F)F)C6)CC5)ccnn4c3)cc2)CC1 (centres unmarked) [Compound 445],< 100 nM,< 10 nM
C[C@@H]1CN(c2ccnn3cc(-c4ccc(N5CCNCC5)cc4)cc23)CCN1C(=O)CCC#N [Compound 199],< 100 nM,< 10 nM
CCN1C[C@@H]2C[C@H]1CN2c1ccc(-c2cc3c(N4CCN(C(=O)C5CC5)CC4)ccnn3c2)cc1 [Compound 242],100 to 500 nM,< 10 nM
CC(C)N1CC[C@@H](c2ccc(-c3cc4c(N5CCN(C(=O)[C@H]6C[C@H](O)C6)CC5)ccnn4c3)cc2)C1 [Compound 321],< 100 nM,< 10 nM
CC(C)N1CCC[C@](F)(c2ccc(-c3cc4c(N5CCN(C(=O)OC6COC6)CC5)ccnn4c3)nc2)C1 [Compound 696],< 100 nM,< 10 nM
CCNC(=O)N1CCN(c2ccnn3cc(-c4ccc([C@@]5(O)CCCN(C(C)C)C5)cc4)cc23)CC1 [Compound 592],< 100 nM,< 10 nM
CCCNC(=O)N1CCN(c2ccnn3cc(-c4ccc([C@H]5CCN(C(C)C)C5)cc4)cc23)CC1 [Compound 532],< 100 nM,< 10 nM
O=C(C1CC1)N1CCN(c2ccnn3cc(-c4ccc(OC5CCNC5)cc4)cc23)CC1 (centres unmarked) [Compound 133],< 100 nM,< 10 nM
C[C@@H]1CN(c2ccc(-c3cc4c(N5CCN(C(=O)C6CC6)CC5)ccnn4c3)cc2)CCN1 [Compound 155],100 to 500 nM,< 10 nM
CCN1CC[C@H](c2ccc(-c3cc4c(N5CCN(C(=O)N6CC(C#N)C6)CC5)ccnn4c3)cc2)C1 [Compound 304],< 100 nM,< 10 nM
CC(C)N1CCC(COC(F)F)(c2ccc(-c3cc4c(N5CCN(C(=O)OC6COC6)CC5)ccnn4c3)cc2)CC1 [Compound 891],< 100 nM,< 10 nM
NC1CCN(c2ccc(-c3cc4c(N5CCN(C(=O)C6CC6)CC5)ccnn4c3)cc2)CC1 [Compound 158],100 to 500 nM,< 10 nM
CCOC(=O)N1CCN(c2ccnn3cc(-c4ccc(C5(OCC)CCN(C(C)C)CC5)cn4)cc23)CC1 [Compound 835],< 100 nM,< 10 nM
CC(C)N1CCC[C@H](c2ccc(-c3cc4c(N5CCN(C(=O)OC6COC6)CC5)ccnn4c3)cc2)C1 [Compound 630],< 100 nM,< 10 nM
COC(=O)NC1(c2ccc(-c3cc4c(N5CCN(C(=O)C6CC6)CC5)ccnn4c3)cc2)CCNCC1 [Compound 622],> 500 nM,< 10 nM
COC[C@@H](C)N1CCC(OC)(c2ccc(-c3cc4c(N5CCN(C(=O)OC6COC6)CC5)ccnn4c3)nc2)CC1 [Compound 744],< 100 nM,< 10 nM
O=C(C1CC1)N1CCN(c2ccnn3cc(-c4cnn(C5CCCC5)c4)cc23)CC1 [Compound 103],> 500 nM,10 to 50 nM
O=C(C1CC1)N1CCN(c2ccnn3cc(-c4ccc(C5CCN(C6COC6)CC5)cc4)cc23)CC1 [Compound 310],100 to 500 nM,< 10 nM
CCOC(=O)N1CCN(c2ccnn3cc(-c4ccc([C@H]5CCCN(C(C)C)C5)cc4)cc23)CC1 [Compound 288],< 100 nM,< 10 nM
CCOC(=O)N1CCN(c2ccnn3cc(-c4ccc([C@@]5(OCC)CCCNC5)cn4)cc23)CC1 [Compound 788],< 100 nM,< 10 nM
CC(C)N1CCC(c2ccc(-c3cc4c(N5CCN(C(=O)NCCC#N)CC5)ccnn4c3)cc2)CC1 [Compound 377],100 to 500 nM,< 10 nM

Compound,IC50 (human ALK2 R206H),IC50 [1]
CCNC(=O)N1CCN(c2ccnn3cc(-c4ccc([C@@H]5CCCN(C(C)C)C5)cn4)cc23)CC1 [Compound 538],< 100 nM,< 10 nM
O=C(OC1COC1)N1CCN(c2ccnn3cc(-c4ccc(C5CCNCC5)cc4)cc23)CC1 [Compound 773],100 to 500 nM,< 10 nM
CCN1CCN(c2ccc(-c3cc4c(N5CCN(C(=O)C6CC6)C[C@@H]5C)ccnn4c3)cc2)CC1 [Compound 263],100 to 500 nM,< 10 nM
CCNC(=O)N1CCN(c2ccnn3cc(-c4ccc([C@@]5(O)CCCN(C(C)C)C5)cn4)cc23)CC1 [Compound 606],< 100 nM,< 10 nM
CO[C@@]1(c2ccc(-c3cc4c(N5CCN(C(=O)NC(C)C)CC5)ccnn4c3)nc2)CCCN(C(C)C)C1 [Compound 686],< 100 nM,< 10 nM
CC(C)N1CC[C@H](OC(F)F)[C@@H](c2ccc(-c3cc4c(N5CCN(C(=O)C6CC6)CC5)ccnn4c3)cc2)C1 [Compound 848],< 100 nM,< 10 nM
CCOC1(c2ccc(-c3cc4c(N5CCN(C(=O)OC6COC6)CC5)ccnn4c3)nc2)CCN(C(C)C)CC1 [Compound 734],< 100 nM,< 10 nM
O=C(C1CC(F)(F)C1)N1CCN(c2ccnn3cc(-c4ccc(N5CCNCC5)cc4)cc23)CC1 [Compound 296],100 to 500 nM,< 10 nM
CCOC(=O)N1CCN(c2ccnn3cc(-c4ccc(C5(OC)CCN(C6COC6)CC5)cn4)cc23)CC1 [Compound 834],< 100 nM,< 10 nM
N[C@@H]1CCN(c2ccc(-c3cc4c(N5CCN(C(=O)C6CC6)CC5)ccnn4c3)cc2)C1 [Compound 462],100 to 500 nM,< 10 nM
O=C(C1CC1)N1CCN(c2ccnn3cc(-c4ccc(C5CCCN5)cc4)cc23)CC1 (centres unmarked) [Compound 113],< 100 nM,< 10 nM
COC[C@@H](C)N1CCC(OC)(c2ccc(-c3cc4c(N5CCN(C(=O)[C@H]6C[C@H](C#N)C6)CC5)ccnn4c3)nc2)CC1 [Compound 749],< 100 nM,< 10 nM
CC(C)N1CC[C@@H](c2ccc(-c3cc4c(N5CCN(C(=O)C6CC6)CC5)ccnn4c3)cc2F)C1 [Compound 283],100 to 500 nM,< 10 nM
O=C(C1CC1)N1CCN(c2ccnn3cc(-c4ccc(N5CCNC(C(F)(F)F)C5)cc4)cc23)CC1 (centres unmarked) [Compound 373],> 500 nM,10 to 50 nM
CCNC(=O)N1CCN(c2ccnn3cc(-c4ccc([C@@H]5CCN(C(C)C)C5)cc4)cc23)CC1 [Compound 224],< 100 nM,< 10 nM
O=C(C1CC1)N1CCN(c2ccnn3cc(-c4cnn(C5CNC5)c4)cc23)CC1 [Compound 100],100 to 500 nM,< 10 nM
CCNC(=O)N1CCN(c2ccnn3cc(-c4ccc([C@]5(OC)CCCN(C(C)C)C5)cn4)cc23)CC1 [Compound 645],< 100 nM,< 10 nM
CCOC(=O)N1CCN(c2ccnn3cc(-c4ccc([C@@]5(OCC)CCCNC5)cc4)cc23)CC1 [Compound 782],< 100 nM,< 10 nM
CCN1CC[C@H](c2ccc(-c3cc4c(N5CCN(C(=O)C6CC6)CC5)ccnn4c3)cc2)C(F)C1 (some centres unmarked) [Compound 279],100 to 500 nM,10 to 50 nM
O=C(C1CC1)N1CCN(c2ccnn3cc(-c4ccc(N5CCN6CCCC6C5)cc4)cc23)CC1 (centres unmarked) [Compound 243],< 100 nM,< 10 nM
[2H]C([2H])([2H])C([2H])([2H])N1CCN(c2ccc(-c3cc4c(N5CCN(C(=O)NCC)CC5)ccnn4c3)cc2)CC1 [Compound 240],< 100 nM,< 10 nM
"CC(C)N1CC(c2ccc(-c3cc4c(N5CCN(C(=O)C6CC6)CC5)ccnn4c3)cc2)C1 [Compound 150, cyclopropyl(4-(6-(4-(1-isopropylazetidin-3-yl)phenyl)pyrrolo[1,2-b]pyridazin-4-yl)piperazin-1-yl)methanone]",< 100 nM,< 10 nM
CC(C)(C#N)c1ccc(-c2cc3c(N4CCN(C(=O)C5CC5)CC4)ccnn3c2)cc1 [Compound 110],100 to 500 nM,10 to 50 nM
CO[C@@]1(c2ccc(-c3cc4c(N5CCN(C(=O)OC6COC6)CC5)ccnn4c3)nc2)CCCNC1 [Compound 801],< 100 nM,< 10 nM
